Laboratory results as given in patent publication US20180186742A1, “PICOLINAMIDES AS FUNGICIDES” (Dow AgroSciences LLC, priority 2017, published 2018).
Like-named read-outs stand apart in the source and are kept apart here.

How the values were obtained:
[1] = test system: Zymoseptoria tritici; experiment: Leaf blotch of wheat (SEPTTR), disease control on wheat seedlings; assay type: in vivo; settings: for pest or weed control at 100 ppm: high volume application at 100 ppm; for pest or weed control at 121.5 g/ha: low volume application at 121.5 g/H
Method: Technical grades of materials were dissolved in acetone, which were then mixed with nine volumes of water containing 110 ppm Triton X-100. The fungicide solutions were applied onto wheat seedlings using an automated booth sprayer to run-off. All sprayed plants were allowed to air dry prior to further handling. All fungicides were evaluated using the aforementioned method for their activity vs. all target diseases, unless stated otherwise. Wheat leaf blotch and brown rust activity were also evaluated using track spray applications, in which case the fungicides were formulated as EC formulations, containing 0.1% Trycol 5941 in the spray solutions. Wheat plants (variety Yuma) were grown from seed in a greenhouse in 50% mineral soil/50% soil-less Metro mix until the first leaf was fully emerged, with 7-10 seedlings per pot. These plants were inoculated with an aqueous spore suspension of Zymoseptoria tritici either prior to or after fungicide treatments. After inoculation the plants were kept in 100% relative humidity (one day in a dark dew chamber followed by two to three days in a lighted dew chamber at 20° C.) to permit spores to germinate and infect the leaf. The plants were then transferred to a greenhouse set at 20° C. for disease to develop. When disease symptoms were fully expressed on the 1st leaves of untreated plants, infection levels were assessed on a scale of 0 to 100 percent disease severity. Percent disease control was calculated using the ratio of disease severity on treated plants relative to untreated plants.

[2] = test system: Puccinia triticina; experiment: Wheat brown rust (PUCCRT), disease control on wheat seedlings; assay type: in vivo; settings: for pest or weed control at 100 ppm: high volume application at 100 ppm; for pest or weed control at 121.5 g/ha: low volume application at 121.5 g/H
Method: Technical grades of materials were dissolved in acetone, which were then mixed with nine volumes of water containing 110 ppm Triton X-100. The fungicide solutions were applied onto wheat seedlings using an automated booth sprayer to run-off. All sprayed plants were allowed to air dry prior to further handling. All fungicides were evaluated using the aforementioned method for their activity vs. all target diseases, unless stated otherwise. Wheat leaf blotch and brown rust activity were also evaluated using track spray applications, in which case the fungicides were formulated as EC formulations, containing 0.1% Trycol 5941 in the spray solutions. Wheat plants (variety Yuma) were grown from seed in a greenhouse in 50% mineral soil/50% soil-less Metro mix until the first leaf was fully emerged, with 7-10 seedlings per pot. These plants were inoculated with an aqueous spore suspension of Puccinia triticina either prior to or after fungicide treatments. After inoculation the plants were kept in a dark dew room at 22° C. with 100% relative humidity overnight to permit spores to germinate and infect the leaf. The plants were then transferred to a greenhouse set at 24° C. for disease to develop. Fungicide formulation, application and disease assessment followed the procedures as described in the Example A.

[3] = 24 h, 1 Day Protectant, read-out: SEPTTR disease control, 1DP, HV activity
[4] = 72 h, 3 Day Curative, read-out: SEPTTR disease control, 3DC, HV activity
[5] = 24 h, 1 Day Protectant, read-out: PUCCRT disease control, 1DP, HV activity
[6] = 72 h, 3 Day Curative, read-out: PUCCRT disease control, 3DC, HV activity
[7] = 24 h, 1 Day Protectant, read-out: SEPTTR disease control, 1DP, LV activity
[8] = 72 h, 3 Day Curative, read-out: SEPTTR disease control, 3DC, LV activity
[9] = 24 h, 1 Day Protectant, read-out: PUCCRT disease control, 1DP, LV activity
[10] = 72 h, 3 Day Curative, read-out: PUCCRT disease control, 3DC, LV activity

SMILES	pest or weed control at 100 ppm [1, 3]	pest or weed control at 100 ppm [1, 4]	pest or weed control at 100 ppm [2, 5]	pest or weed control at 100 ppm [2, 6]	pest or weed control at 121.5 g/ha [1, 7]	pest or weed control at 121.5 g/ha [1, 8]	pest or weed control at 121.5 g/ha [2, 9]	pest or weed control at 121.5 g/ha [2, 10]
COc1cc(F)ccc1[C@@H](C1CCC1)[C@H](C)OC(=O)[C@H](C)NC(=O)c1nccc(OC)c1O [Compound 142]	< 0%	< 80%	> 80%	> 80%				
COc1cc(F)ccc1[C@H](C1CCCCC1)[C@H](C)OC(=O)[C@H](C)NC(=O)c1nccc(OC)c1O [Compound 143]	> 80%	< 80%	> 80%	> 80%				
COc1cc(F)ccc1[C@H](C1CCCC1)[C@H](C)OC(=O)[C@H](C)NC(=O)c1nccc(OC)c1O [Compound 144]	< 80%	> 80%	> 80%	> 80%				
CCC(CC)[C@@H](c1ccc(F)cc1OC)[C@H](C)OC(=O)[C@H](C)NC(=O)c1nccc(OC)c1O [Compound 145]	< 80%	> 80%	> 80%	> 80%				
CCC(C)[C@@H](c1ccc(F)cc1OC)[C@H](C)OC(=O)[C@H](C)NC(=O)c1nccc(OC)c1O (some centres unmarked) [Compound 146]	< 80%	> 80%	> 80%	> 80%				
COc1cc(F)ccc1[C@H](C1CCC1)[C@H](C)OC(=O)[C@H](C)NC(=O)c1nccc(OC)c1O [Compound 147]	< 0%	< 80%	> 80%	> 80%				
COc1cc(F)ccc1[C@H](C(C)C)[C@H](C)OC(=O)[C@H](C)NC(=O)c1nccc(OC)c1O [Compound 148]	< 0%	< 80%	< 80%	> 80%				
COc1ccnc(C(=O)N[C@@H](C)C(=O)O[C@@H](C)[C@@H](c2ccc(C)cc2C)C2CCC2)c1O [Compound 149]	< 80%	> 80%	< 80%	< 80%				
COc1ccnc(C(=O)N[C@@H](C)C(=O)O[C@@H](C)[C@@H](c2ccccc2)C(C)C)c1OC(C)=O [Compound 160]					< 80%	> 80%	> 80%	< 80%
COc1ccnc(C(=O)N[C@@H](C)C(=O)O[C@@H](C)[C@@H](c2ccccc2)C2CCCC2)c1OC(C)=O [Compound 161]					< 80%	> 80%	> 80%	< 80%
COc1ccnc(C(=O)N[C@@H](C)C(=O)O[C@@H](C)[C@@H](c2ccccc2)C2CCCC2)c1OCOC(C)=O [Compound 163]					< 80%	> 80%	> 80%	< 80%
COc1ccnc(C(=O)N[C@@H](C)C(=O)O[C@@H](C)[C@H](c2ccccc2)C(C)C)c1OC(C)=O [Compound 165]					> 80%	> 80%	> 80%	> 80%
COc1ccnc(C(=O)N[C@@H](C)C(=O)O[C@@H](C)[C@H](c2ccc(C)cc2)C2CC2)c1OC(C)=O [Compound 166]					< 80%	> 80%	> 80%	> 80%
COc1ccnc(C(=O)N[C@@H](C)C(=O)O[C@@H](C)[C@H](c2ccc(C)cc2)C2CC2)c1OCOC(C)=O [Compound 167]					> 80%	> 80%	> 80%	> 80%
COc1ccnc(C(=O)N[C@@H](C)C(=O)O[C@@H](C)[C@H](c2ccc(C)cc2)C(C)C)c1OC(C)=O [Compound 168]					< 80%	< 80%	> 80%	> 80%
COc1ccnc(C(=O)N[C@@H](C)C(=O)OC(C)C(c2ccc(F)cc2)C(C)C)c1OC(C)=O (some centres unmarked) [Compound 169]					< 80%	> 80%	> 80%	> 80%
COc1ccnc(C(=O)N[C@@H](C)C(=O)O[C@@H](C)[C@H](c2ccc(F)cc2)C2CC2)c1OC(C)=O [Compound 170]					> 80%	> 80%	> 80%	> 80%
COc1ccnc(C(=O)N[C@@H](C)C(=O)O[C@@H](C)[C@H](c2ccc(F)cc2)C2CC2)c1OCOC(C)=O [Compound 171]					> 80%	> 80%	> 80%	> 80%
CCC(CC)[C@@H](c1ccccc1)C(C)OC(=O)[C@H](C)NC(=O)c1nccc(OC)c1OC(C)=O (some centres unmarked) [Compound 172]					> 80%	> 80%	> 80%	> 80%
COc1ccnc(C(=O)N[C@@H](C)C(=O)OC(C)[C@H](c2ccccc2)C2CCCC2)c1OC(C)=O (some centres unmarked) [Compound 173]					> 80%	> 80%	> 80%	< 80%
CCC(CC)[C@@H](c1ccccc1)C(C)OC(=O)[C@H](C)NC(=O)c1nccc(OC)c1OCOC(C)=O (some centres unmarked) [Compound 174]					> 80%	> 80%	> 80%	> 80%
COc1ccnc(C(=O)N[C@@H](C)C(=O)OC(C)[C@H](c2ccccc2)C2CCCC2)c1OCOC(C)=O (some centres unmarked) [Compound 175]					> 80%	> 80%	> 80%	> 80%
COc1ccnc(C(=S)N[C@@H](C)C(=O)OC(C)[C@H](c2ccccc2)C2CCCC2)c1OC(C)=O (some centres unmarked) [Compound 176]					> 80%	> 80%	> 80%	< 80%
COCCC(=O)Oc1c(OC)ccnc1C(=O)N[C@@H](C)C(=O)O[C@@H](C)[C@H](c1ccc(C)cc1)C(C)C [Compound 245]					< 80%		> 80%	> 80%
COCCC(=O)Oc1c(OC)ccnc1C(=O)N[C@@H](C)C(=O)O[C@@H](C)[C@H](c1ccc(F)c(C)c1)C(C)C [Compound 246]					> 80%		> 80%	> 80%
COCCC(=O)Oc1c(OC)ccnc1C(=O)N[C@@H](C)C(=O)O[C@@H](C)[C@H](c1ccc(OC)cc1F)C(C)C [Compound 247]					< 80%		> 80%	> 80%
COCCC(=O)Oc1c(OC)ccnc1C(=O)N[C@@H](C)C(=O)O[C@@H](C)[C@H](c1ccc(OC)c(F)c1)C(C)C [Compound 248]					< 80%		< 80%	< 80%
